{"source": "patent US20020169183A1", "about": "“Acridines as stimulators for Fas-mediated apoptosis” (priority 2001, published 2002)", "key": {"Hepatocytes": {"test_system": "Hepatocytes", "assay": "Fas-dependent apoptosis by FACS analysis (DNA fragmentation, propidium iodide; annexin V)", "format": "cell-based", "settings": "at 10 μM", "experimental": "Assays for Fas-dependent apoptosis are known in the art. See, for example, Ruiz-Ruiz et al, Cell Death Diff. 6:271 (1999); and Muller et al., […]. 188:2033 (1998).\nApoptosis is identified by detection of the DNA fragmentation pattern characteristic of apoptotic cell death. In this Example, apoptosis is detected and measured by FACS® analysis carried out in a FACScan® flow cytometer (Becton Dickinson) using CellQuest software. Quantification of DNA fragmentation is performed by FACS® analysis of propidium iodide-stained nuclei as described in Nicolletti et al., J. Immunol. Methods 139:271-279 (1991). Hepatocytes floating in the culture medium are collected by centrifugation at 200× g. Adherent hepatocytes are harvested by incubation with 1% trypsin for 1 min. The cells are washed in phosphate-buffered saline (PBS), suspended in hypotonic lysis buffer (0.1% sodium citrate, 0.1% Triton X, and […] propidium iodide) (Sigma) and incubated at 4° C. for 6 hours. Cells are then analyzed for DNA content by flow cytometry.\nEarly apoptotic changes are identified using annexin V-Fluos (Boehringer Mannheim) which binds to phosphatidylserine molecules (PS) exposed on apoptotic, but not normal, cell membranes (PS is normally restricted to the inner leaflet of the cell membrane bilayer). […] Cells are incubated for 10-15 min and analyzed on a flow cytometer using CellQuest software. […]"}, "Synoviocytes": {"test_system": "Synoviocytes", "assay": "Stimulation of Fas-mediated apoptosis: XTT cell viability with anti-human Fas antibody h-HFE7A, stimulation index", "format": "cell-based", "settings": "10 μM compound with h-HFE7A 1000 ng/mL, synoviocytes from rheumatoid arthritis patients, 16 hours", "from_the_text": "Anti-human Fas antibody h-HFE7A, humanized antibody was obtained from Sankyo Co., Ltd. This antibody induces apoptosis when cross-linked with secondary antibody in vitro.\nSamples of human synovium were obtained from rheumatoid arthritis patients at the time of total knee replacement surgery or synoviectomy. Synovial tissue was minced into small pieces and was digested with collagenase and cultured in Ham's F12 medium supplemented with 10% fetal bovine serum (F10F) in a humidified 5% CO2 atmosphere at 37° C. Adherent cells were considered as synoviocytes and were cultivated in F10F.\nCell viability was determined with the XTT method described in Cancer Res. 48:4827 (1988). Ninety-six well flat plates were precoated with anti-human IgG. h-HFE7A (1000 ng/mL) and/or 10 μM of a compound of this invention were added and incubated for 2 hours. Synoviocytes were seeded (10,000/well) and incubated for 16 hours. Background wells received culture medium only. XTT (2,3-Bis[2-methoxy-4-nitro-sulfophenyl]-2H-tetrazolium-5-carboxanilide), final concentration 200 μg/mL, and phenazine methosulfate, final concentration 5 μM, were added to each well, and further incubated for 4 hours. The absorbance at 450 nm was measured and cell viability was determined as follows: [formula]\nEnhancement of Fas-mediated apoptosis by compounds of this invention was determined by the stimulation index (SI): [formula] […]"}}, "data": [{"smiles": "CCN(CC)CCCNc1c2ccccc2nc2ccccc12", "note": "[Compound 3, 9-[(3-diethylaminopropyl)amino]acridine]", "values": [{"measurement": "stimulation of Fas-dependent apoptosis", "setting": "Hepatocytes", "result": "shows stimulation"}, {"measurement": "Enhancement of Fas-mediated apoptosis, stimulation index (SI)", "setting": "Synoviocytes", "result": "positive (An SI over 2.0 was considered positive)"}]}]}
